This is an account of results in patent publication US9944645B2, “Imidazotriazines and imidazopyrimidines as kinase inhibitors” (Incyte Holdings Corporation, priority 2006, dated 2018).

Bounds are passed on as bounds.

This test has as its target c-Met kinase (h-Met; histidine-tagged c-Met catalytic domain fusion protein) (Homo sapiens (Human), UniProt P08581). In words: In Vitro c-Met Kinase Enzyme Assays. It is filed as biochemical. The settings on record: phosphorylation of poly Glu-Tyr, 5 μM ATP, 25 minutes at 30° C. In short, it runs like this:
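His-tagged c-Met catalytic domain reacted 25 min at 30° C, within the linear initial-rate range. Phosphotyrosine detected by ELISA with peroxidase-labeled anti-phospho-tyrosine antibody and TMB, OD read at 450 nm (540 nm correction); IC50 from curve fit.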

Sequence of c-Met kinase (h-Met; histidine-tagged c-Met catalytic domain fusion protein) (P08581 1078-1345): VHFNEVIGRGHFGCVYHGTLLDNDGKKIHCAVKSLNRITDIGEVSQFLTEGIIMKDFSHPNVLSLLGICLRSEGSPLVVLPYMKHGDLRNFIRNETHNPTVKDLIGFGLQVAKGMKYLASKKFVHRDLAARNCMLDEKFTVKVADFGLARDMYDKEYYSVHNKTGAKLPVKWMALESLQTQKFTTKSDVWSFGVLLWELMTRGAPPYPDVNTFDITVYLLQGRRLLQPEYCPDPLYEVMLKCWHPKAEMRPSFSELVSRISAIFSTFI

On to `COCC1(NC(=O)c2ccc(-c3cnc4ncc(C(C)c5ccc6ncccc6c5)n4n3)cc2F)CC1` (stereo not drawn) [Example 162, 2-Fluoro-N-[1-(methoxymethyl)cyclopropyl]-4-[7-(1-quinolin-6-ylethyl)imidazo[1,2-b][1,2,4]triazin-2-yl]benzamide], for which the IC50 (commonly the concentration at which inhibition is half-maximal) is less than 500 nM.
As for `COCC(C)NC(=O)c1ccc(-c2cnc3ncc(C4(c5ccc6ncccc6c5)CC4)n3c2)cc1F` (stereo not drawn) [Example 163, 2-Fluoro-N-(2-methoxy-1-methylethyl)-4-[3-(1-quinolin-6-ylcyclopropyl)imidazo[1,2-a]pyrimidin-6-yl]benzamide], the figure is less than 500 nM.
As for `O=C(c1ccc(-c2cnc3ncc(C4(c5ccc6ncccc6c5)CC4)n3c2)cc1F)N1CC[C@H](F)C1` [Example 164, 6-{1-[6-(3-Fluoro-4-[(3S)-3-fluoropyrrolidin-1-yl]carbonylphenyl)imidazo[1,2-a]pyrimidin-3-yl]cyclopropyl}quinoline], the figure is less than 500 nM.
In turn, `O=C(NCc1ccccn1)c1ccc(-c2cnc3ncc(C4(c5ccc6ncccc6c5)CC4)n3c2)cc1F` [Example 165, 2-Fluoro-N-(pyridin-2-ylmethyl)-4-[3-(1-quinolin-6-ylcyclopropyl)imidazo[1,2-a]pyrimidin-6-yl]benzamide] had an IC50 of less than 500 nM.
As for `O=C(NC1(c2ccccn2)CC1)c1ccc(-c2cnc3ncc(C4(c5ccc6ncccc6c5)CC4)n3c2)cc1F` [Example 166, 2-Fluoro-N-(1-pyridin-2-ylcyclopropyl)-4-[3-(1-quinolin-6-ylcyclopropyl)imidazo[1,2-a]pyrimidin-6-yl]benzamide], the figure is less than 500 nM; as for `O=C(NC1CCN(c2ccccn2)C1)c1ccc(-c2cnc3ncc(C4(c5ccc6ncccc6c5)CC4)n3c2)cc1F` (stereo not drawn) [Example 167, 2-Fluoro-N-(1-pyridin-2-ylpyrrolidin-3-yl)-4-[3-(1-quinolin-6-ylcyclopropyl)imidazo[1,2-a]pyrimidin-6-yl]benzamide], less than 500 nM; as for `O=C(N[C@@H]1CCOC1)c1ccc(-c2cnc3ncc(C4(c5ccc6ncccc6c5)CC4)n3c2)cc1F` [Example 168, 2-Fluoro-4-[3-(1-quinolin-6-ylcyclopropyl)imidazo[1,2-a]pyrimidin-6-yl]-N-[(3R)-tetrahydrofuran-3-yl]benzamide], less than 500 nM.
As for `O=C(NCC1CCCO1)c1ccc(-c2cnc3ncc(C4(c5ccc6ncccc6c5)CC4)n3c2)cc1F` (stereo not drawn) [Example 169, 2-Fluoro-4-[3-(1-quinolin-6-ylcyclopropyl)imidazo[1,2-a]pyrimidin-6-yl]-N-(tetrahydrofuran-2-ylmethyl)benzamide], the figure is less than 500 nM.
As for `O=C(NC1CC1)c1ccc(-c2cnc3ncc(C4(c5ccc6ncccc6c5)CC4)n3c2)cc1F` [Example 170, N-Cyclopropyl-2-fluoro-4-[3-(1-quinolin-6-ylcyclopropyl)imidazo[1,2-a]pyrimidin-6-yl]benzamide], the figure is less than 500 nM.
On to `COC[C@@H](NC(=O)c1ccc(-c2cnc3ncc(C4(c5ccc6ncccc6c5)CC4)n3c2)cc1F)C(C)C` [Example 171, 2-Fluoro-N-[(1S)-1-(methoxymethyl)-2-methylpropyl]-4-[3-(1-quinolin-6-ylcyclopropyl)imidazo[1,2-a]pyrimidin-6-yl]benzamide], for which the IC50 is less than 500 nM.
As for `NC(=O)c1ccc(-c2cnc3ncc(C4(c5ccc6ncccc6c5)CC4)n3c2)cc1F` [Example 172, 2-Fluoro-4-[3-(1-quinolin-6-ylcyclopropyl)imidazo[1,2-a]pyrimidin-6-yl]benzamide], the figure is less than 500 nM; as for `CN(CCN(C)c1ccccn1)C(=O)c1ccc(-c2cnc3ncc(C4(c5ccc6ncccc6c5)CC4)n3c2)cc1F` [Example 173, 2-Fluoro-N-methyl-N-2-[methyl(pyridin-2-yl)amino]ethyl-4-[3-(1-quinolin-6-ylcyclopropyl)imidazo[1,2-a]pyrimidin-6-yl]benzamide], less than 500 nM.
